From BindingDB's records for doi:10.1073/pnas.182234399 (Case Western Reserve University, 2002)

Experiments:
D(3) dopamine receptor = D(3) dopamine receptor (Homo sapiens, UniProt P35462)
[1] = target: 5-hydroxytryptamine receptor 1A (Homo sapiens, UniProt P08908)
[2] = target: 5-hydroxytryptamine receptor 6 (Homo sapiens, UniProt P50406)
[3] = target: 5-hydroxytryptamine receptor 2A (Rattus norvegicus, UniProt P14842)
Histamine H1 receptor = Histamine H1 receptor (Homo sapiens, UniProt P35367)
[4] = target: 5-hydroxytryptamine receptor 1B (Homo sapiens, UniProt P28222)
[5] = target: 5-hydroxytryptamine receptor 1D (Homo sapiens, UniProt P28221)
[6] = target: 5-hydroxytryptamine receptor 2B (Homo sapiens, UniProt P41595)
[7] = target: 5-hydroxytryptamine receptor 7 (Homo sapiens, UniProt P34969)
[8] = target: 5-hydroxytryptamine receptor 1E (Homo sapiens, UniProt P28566)
[9] = target: Neuronal acetylcholine receptor subunit alpha-4 (Homo sapiens, UniProt P43681)
[10] = target: Neuronal acetylcholine receptor subunit alpha-4 (Rattus norvegicus, UniProt P09483)
[11] = target: 5-hydroxytryptamine receptor 3A (Homo sapiens, UniProt P46098)
[12] = target: Beta-1 adrenergic receptor (Rattus norvegicus, UniProt P18090)
[13] = target: Muscarinic acetylcholine receptor M3 (Homo sapiens, UniProt P20309)
[14] = target: Metabotropic glutamate receptor 5 (Homo sapiens, UniProt P41594)
D(2) dopamine receptor = D(2) dopamine receptor (Homo sapiens, UniProt P14416)
[15] = target: Alpha-1A adrenergic receptor (Homo sapiens, UniProt P35348)
D(1A) dopamine receptor = D(1A) dopamine receptor (Homo sapiens, UniProt P21728)
[16] = target: 5-hydroxytryptamine receptor 5A (Homo sapiens, UniProt P47898)
[17] = target: 5-hydroxytryptamine receptor 2C (Rattus norvegicus, UniProt P08909)
D(1B) dopamine receptor = D(1B) dopamine receptor (Homo sapiens, UniProt P21918)
[18] = target: Metabotropic glutamate receptor 4 (Homo sapiens, UniProt Q14833)
[19] = target: Metabotropic glutamate receptor 1 (Homo sapiens, UniProt Q13255)
[20] = target: Metabotropic glutamate receptor 2 (Homo sapiens, UniProt Q14416)
[21] = target: Muscarinic acetylcholine receptor M2 (Homo sapiens, UniProt P08172)
[22] = target: Muscarinic acetylcholine receptor M1 (Homo sapiens, UniProt P11229)
[23] = target: Gamma-aminobutyric acid receptor subunit alpha-1 (Rattus norvegicus, UniProt P62813)
Vasopressin V1b receptor = Vasopressin V1b receptor (Homo sapiens, UniProt P47901)
[24] = target: Muscarinic acetylcholine receptor M4 (Homo sapiens, UniProt P08173)
[25] = target: Neuronal acetylcholine receptor subunit alpha-2 (Homo sapiens, UniProt Q15822)
[26] = target: Neuronal acetylcholine receptor subunit alpha-3 (Homo sapiens, UniProt P32297)
D(4) dopamine receptor = D(4) dopamine receptor (Rattus norvegicus, UniProt P30729)
[27] = target: Sodium-dependent dopamine transporter (Bos taurus, UniProt P27922)
[28] = target: Glutamate receptor ionotropic, NMDA 1 (Rattus norvegicus, UniProt P35439)
[29] = target: Metabotropic glutamate receptor 6 (Homo sapiens, UniProt O15303)
[30] = target: Metabotropic glutamate receptor 8 (Homo sapiens, UniProt O00222)
[31] = target: Muscarinic acetylcholine receptor M5 (Homo sapiens, UniProt P08912)
[32] = target: Beta-2 adrenergic receptor (Rattus norvegicus, UniProt P10608)
Vasopressin V2 receptor = Vasopressin V2 receptor (Homo sapiens, UniProt P30518)

Measured: Ki

Chain of 5-hydroxytryptamine receptor 2C (P08909 whole entry): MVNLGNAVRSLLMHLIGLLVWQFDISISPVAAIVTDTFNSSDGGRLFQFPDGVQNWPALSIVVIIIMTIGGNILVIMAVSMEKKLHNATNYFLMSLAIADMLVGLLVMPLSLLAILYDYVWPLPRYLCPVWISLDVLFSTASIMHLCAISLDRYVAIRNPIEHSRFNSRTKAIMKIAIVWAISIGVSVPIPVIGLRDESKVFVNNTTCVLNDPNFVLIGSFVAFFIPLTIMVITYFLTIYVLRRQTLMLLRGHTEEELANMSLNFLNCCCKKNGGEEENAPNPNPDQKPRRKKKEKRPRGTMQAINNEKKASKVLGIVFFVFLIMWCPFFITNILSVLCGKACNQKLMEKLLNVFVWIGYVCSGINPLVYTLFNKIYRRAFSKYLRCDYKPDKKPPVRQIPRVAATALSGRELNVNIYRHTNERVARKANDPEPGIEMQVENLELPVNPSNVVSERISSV
Chain of 5-hydroxytryptamine receptor 5A (P47898 whole entry): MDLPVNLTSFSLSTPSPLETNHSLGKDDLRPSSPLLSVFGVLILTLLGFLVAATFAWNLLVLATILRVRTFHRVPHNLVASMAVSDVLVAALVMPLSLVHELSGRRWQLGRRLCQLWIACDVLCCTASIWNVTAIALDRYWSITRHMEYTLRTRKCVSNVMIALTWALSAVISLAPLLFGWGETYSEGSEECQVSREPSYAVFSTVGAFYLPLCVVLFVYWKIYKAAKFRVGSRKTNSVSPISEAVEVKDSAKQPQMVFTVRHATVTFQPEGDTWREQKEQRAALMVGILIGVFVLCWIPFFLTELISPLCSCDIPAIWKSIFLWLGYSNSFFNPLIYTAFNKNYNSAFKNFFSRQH
Chain of Sodium-dependent dopamine transporter (P27922 whole entry): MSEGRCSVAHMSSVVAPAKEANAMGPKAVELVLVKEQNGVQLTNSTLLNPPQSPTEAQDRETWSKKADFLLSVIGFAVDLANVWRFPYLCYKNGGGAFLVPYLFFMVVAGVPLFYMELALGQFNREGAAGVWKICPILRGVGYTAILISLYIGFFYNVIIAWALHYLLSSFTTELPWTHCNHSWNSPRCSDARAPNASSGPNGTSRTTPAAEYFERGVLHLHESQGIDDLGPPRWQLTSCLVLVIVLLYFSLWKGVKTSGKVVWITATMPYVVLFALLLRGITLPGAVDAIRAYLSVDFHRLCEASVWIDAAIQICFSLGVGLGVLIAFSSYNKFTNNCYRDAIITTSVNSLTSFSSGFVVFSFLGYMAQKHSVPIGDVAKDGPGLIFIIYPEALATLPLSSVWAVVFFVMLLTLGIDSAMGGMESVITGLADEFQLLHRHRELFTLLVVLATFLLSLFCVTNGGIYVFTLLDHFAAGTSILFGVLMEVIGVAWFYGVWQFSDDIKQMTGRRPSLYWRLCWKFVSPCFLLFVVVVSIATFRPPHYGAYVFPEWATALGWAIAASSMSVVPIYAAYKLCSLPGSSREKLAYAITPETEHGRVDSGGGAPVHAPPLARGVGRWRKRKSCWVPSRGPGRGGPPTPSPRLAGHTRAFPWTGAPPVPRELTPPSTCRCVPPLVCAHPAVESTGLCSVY
Chain of 5-hydroxytryptamine receptor 6 (P50406 whole entry): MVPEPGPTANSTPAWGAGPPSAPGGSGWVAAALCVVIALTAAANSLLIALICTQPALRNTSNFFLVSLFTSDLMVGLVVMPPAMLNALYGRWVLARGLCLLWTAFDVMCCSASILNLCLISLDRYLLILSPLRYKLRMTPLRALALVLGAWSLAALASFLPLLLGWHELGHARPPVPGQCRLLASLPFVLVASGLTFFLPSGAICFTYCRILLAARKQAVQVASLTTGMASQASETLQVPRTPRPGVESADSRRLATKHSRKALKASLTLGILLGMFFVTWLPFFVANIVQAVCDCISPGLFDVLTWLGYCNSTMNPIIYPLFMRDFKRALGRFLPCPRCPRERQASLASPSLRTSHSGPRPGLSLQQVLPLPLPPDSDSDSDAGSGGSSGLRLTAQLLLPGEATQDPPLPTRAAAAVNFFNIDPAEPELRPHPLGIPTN
Chain of Vasopressin V2 receptor (P30518 whole entry): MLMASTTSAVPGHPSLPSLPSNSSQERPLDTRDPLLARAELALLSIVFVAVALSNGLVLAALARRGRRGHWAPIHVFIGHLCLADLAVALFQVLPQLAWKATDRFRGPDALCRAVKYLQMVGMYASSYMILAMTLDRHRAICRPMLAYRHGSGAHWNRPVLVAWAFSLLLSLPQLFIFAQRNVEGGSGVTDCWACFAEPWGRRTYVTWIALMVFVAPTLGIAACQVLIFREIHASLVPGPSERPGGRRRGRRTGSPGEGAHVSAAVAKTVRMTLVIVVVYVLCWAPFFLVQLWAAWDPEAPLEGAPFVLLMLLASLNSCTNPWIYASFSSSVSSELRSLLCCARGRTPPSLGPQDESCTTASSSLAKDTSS
Chain of Muscarinic acetylcholine receptor M4 (P08173 whole entry): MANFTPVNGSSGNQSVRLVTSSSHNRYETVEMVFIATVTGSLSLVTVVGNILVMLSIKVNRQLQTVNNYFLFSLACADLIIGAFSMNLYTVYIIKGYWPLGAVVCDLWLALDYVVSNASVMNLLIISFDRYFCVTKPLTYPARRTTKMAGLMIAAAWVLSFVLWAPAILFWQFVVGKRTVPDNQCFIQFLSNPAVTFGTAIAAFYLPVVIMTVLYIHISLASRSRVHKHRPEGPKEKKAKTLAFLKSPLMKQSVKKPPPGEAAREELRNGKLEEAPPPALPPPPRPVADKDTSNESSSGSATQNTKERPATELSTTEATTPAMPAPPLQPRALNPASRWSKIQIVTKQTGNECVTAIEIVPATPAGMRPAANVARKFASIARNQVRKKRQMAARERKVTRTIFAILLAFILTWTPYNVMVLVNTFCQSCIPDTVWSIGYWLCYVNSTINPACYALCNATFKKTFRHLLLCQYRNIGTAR
Chain of 5-hydroxytryptamine receptor 2A (P14842 whole entry): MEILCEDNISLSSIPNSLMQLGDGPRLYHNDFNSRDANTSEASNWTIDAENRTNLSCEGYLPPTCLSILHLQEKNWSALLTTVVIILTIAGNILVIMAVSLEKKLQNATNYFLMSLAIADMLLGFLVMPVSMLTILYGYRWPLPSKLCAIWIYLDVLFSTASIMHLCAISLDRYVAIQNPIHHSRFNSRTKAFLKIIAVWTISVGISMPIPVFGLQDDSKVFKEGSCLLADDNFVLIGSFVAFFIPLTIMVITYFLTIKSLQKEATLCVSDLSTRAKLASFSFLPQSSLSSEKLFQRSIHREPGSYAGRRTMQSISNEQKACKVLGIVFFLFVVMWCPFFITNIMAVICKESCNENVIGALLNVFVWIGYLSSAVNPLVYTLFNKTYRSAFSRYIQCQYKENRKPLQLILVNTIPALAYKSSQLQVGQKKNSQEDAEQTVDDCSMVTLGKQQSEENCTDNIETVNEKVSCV
Chain of Metabotropic glutamate receptor 2 (Q14416 whole entry): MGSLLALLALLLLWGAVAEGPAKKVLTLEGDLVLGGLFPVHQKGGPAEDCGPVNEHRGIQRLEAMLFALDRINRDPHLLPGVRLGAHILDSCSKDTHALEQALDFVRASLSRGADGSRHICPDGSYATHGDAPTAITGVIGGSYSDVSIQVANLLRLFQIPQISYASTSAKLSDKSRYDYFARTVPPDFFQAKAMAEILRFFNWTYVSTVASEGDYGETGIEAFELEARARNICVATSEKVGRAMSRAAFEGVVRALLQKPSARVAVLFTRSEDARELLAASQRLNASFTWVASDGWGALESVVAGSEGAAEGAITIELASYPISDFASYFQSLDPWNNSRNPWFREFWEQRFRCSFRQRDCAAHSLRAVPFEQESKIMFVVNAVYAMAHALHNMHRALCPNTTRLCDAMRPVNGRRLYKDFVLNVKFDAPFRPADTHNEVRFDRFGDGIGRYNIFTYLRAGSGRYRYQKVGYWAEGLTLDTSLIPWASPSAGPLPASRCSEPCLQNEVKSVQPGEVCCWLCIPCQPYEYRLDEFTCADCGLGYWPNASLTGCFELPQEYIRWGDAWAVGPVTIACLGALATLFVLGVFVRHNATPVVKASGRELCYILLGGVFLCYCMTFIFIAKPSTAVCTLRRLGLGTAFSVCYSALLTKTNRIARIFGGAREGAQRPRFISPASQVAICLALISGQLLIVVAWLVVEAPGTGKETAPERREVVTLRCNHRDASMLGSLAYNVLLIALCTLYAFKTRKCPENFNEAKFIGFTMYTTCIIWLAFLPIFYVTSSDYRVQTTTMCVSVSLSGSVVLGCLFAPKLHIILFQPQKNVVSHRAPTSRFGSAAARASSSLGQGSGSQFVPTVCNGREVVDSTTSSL
Chain of Beta-2 adrenergic receptor (P10608 whole entry): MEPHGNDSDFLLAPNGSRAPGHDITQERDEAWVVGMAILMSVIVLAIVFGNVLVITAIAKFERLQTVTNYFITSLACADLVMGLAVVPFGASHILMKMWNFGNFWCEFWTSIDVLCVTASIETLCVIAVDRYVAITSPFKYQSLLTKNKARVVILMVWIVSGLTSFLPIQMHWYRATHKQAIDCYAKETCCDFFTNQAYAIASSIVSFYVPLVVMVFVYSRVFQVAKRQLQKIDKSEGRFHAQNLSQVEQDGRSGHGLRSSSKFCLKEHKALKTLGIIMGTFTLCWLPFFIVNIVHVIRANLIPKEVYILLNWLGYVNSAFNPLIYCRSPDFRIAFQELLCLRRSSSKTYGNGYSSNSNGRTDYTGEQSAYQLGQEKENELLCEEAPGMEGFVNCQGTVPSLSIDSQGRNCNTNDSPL
Chain of 5-hydroxytryptamine receptor 1D (P28221 whole entry): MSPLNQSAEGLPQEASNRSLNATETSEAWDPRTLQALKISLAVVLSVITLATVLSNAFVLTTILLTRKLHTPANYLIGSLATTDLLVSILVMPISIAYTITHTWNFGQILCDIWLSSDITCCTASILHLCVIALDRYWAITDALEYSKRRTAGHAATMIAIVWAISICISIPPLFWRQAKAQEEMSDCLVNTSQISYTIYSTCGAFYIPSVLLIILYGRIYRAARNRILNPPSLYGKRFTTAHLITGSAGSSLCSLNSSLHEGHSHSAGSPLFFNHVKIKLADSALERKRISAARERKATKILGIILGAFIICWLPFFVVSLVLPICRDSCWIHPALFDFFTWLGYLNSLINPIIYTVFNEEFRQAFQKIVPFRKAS

COC(=O)[C@@H]1C[C@H](OC(C)=O)C(=O)[C@H]2[C@@]1(C)CC[C@H]1C(=O)O[C@H](c3ccoc3)C[C@]21C [2S,4aR,6a(R,7R,9S,10aS,10bR)-9-(acetyloxy)-2-(furan-3-yl)dodecahydro-6a,10b-dimethyl-4,10-dioxo-2H-naphtho[2,1-c]pyran-7-carboxylic acid methyl ester]
> 10 µM: all assays above
